In US10357576B2, “18F-labelled folate/antifolate analogues” (MERCK & CIE, priority 2012, dated 2019):

Key:
KB cells = test: In vitro cell uptake and internalization studies; assay type: cell-based, human; conditions: two hours of incubation, 37° C.
Method: Cell Culture: KB cells (human cervical carcinoma cell line, HeLa subclone; ACC-136) were purchased from the German Collection of Microorganisms and Cell Cultures (DSMZ, Braunschweig, Germany). The cells were cultured as monolayers at 37° C. in a humidified atmosphere containing 5% CO2. […] FFRPMI medium was supplemented with 10% heat-inactivated fetal calf serum (FCS, as the only source of folate), L-glutamine and antibiotics (penicillin/streptomycin/fungizone). Routine culture treatment was performed twice a week with EDTA (2.5 mmol/l) in PBS.
KB cells were seeded in 12-well plates to grow over night (˜700,000 cells in 2 ml FFRPMI medium/well). [^18F]-3′-aza-2′-fluorofolic acid ([…], 170 kBq) was added to each well. […] After incubation for 1 h or 2 h at 37° C. the cells were washed three times with PBS to determine total cell uptake of 3′-aza-2′-[^18F]fluorofolic acid. […] The cell suspensions were transferred to 4 ml tubes and the samples were counted in a −counter. After homogenization by vortex, the concentration of proteins was determined for each sample by a Micro BCA Protein Assay kit in order to standardize measured radioactivity to the average content of 0.3 mg protein in a single well. […]

KB tumor xenografts = test: Biodistribution studies in nude mice bearing KB tumor xenografts; assay type: in vivo, nude mice (CD-1 Foxn-1/nu)
Text: In vivo experiments were approved by the local veterinarian department and conducted in accordance to the Swiss law of animal protection. Six to eight-week-old female, athymic nude mice (CD-1 Foxn-1/nu) were purchased from Charles River Laboratories (Sulzfeld, Germany). The animals were fed with a folate-deficient rodent diet starting 5 days prior to the tumor cell inoculation. Mice were inoculated with KB cells (5×10^6 cells in […] PBS) into the subcutis of each shoulder. Animal experiments were performed approximately 14 days after tumor cell inoculation. Biodistribution studies were performed in triplicate. [^18F]-3′-aza-2′-fluorofolic acid was diluted in PBS pH 7.4 to the desired radioactivity concentration (˜5 MBq per mouse) for immediate administration via a lateral tail vein.
[…] Selected tissues and organs were collected, weighed, and counted for radioactivity in a −counter. The results were listed as percentage of the injected dose per gram of tissue weight [% ID/g], using reference counts from a definite sample of the original injectate that was counted at the same time.
The obtained are summarized in Table 2 and represent the percentage injected dose per gram tissue [% ID/g] averaged from three or four animals (Table 2).

[1] = 60 min p.i. blockade (100 μg folic acid 10 min before radiotracer)

- % ID/g in Blood (KB tumor xenografts; 30 min p.i., i.v.): 1.2 ± 0.3 % ID/g
- % ID/g in Bone (KB tumor xenografts; 30 min p.i., i.v.): 2.1 ± 0.3 % ID/g
- % ID/g in Feces (KB tumor xenografts; 30 min p.i., i.v.): 1.2 ± 0.2 % ID/g
- % ID/g in Gallbladder (KB tumor xenografts; 30 min p.i., i.v.): 8.1 ± 2.9 % ID/g
- % ID/g in Heart (KB tumor xenografts; 30 min p.i., i.v.): 2.1 ± 0.2 % ID/g
- % ID/g in Intestine (KB tumor xenografts; 30 min p.i., i.v.): 1.4 ± 0.1 % ID/g
- % ID/g in Kidneys (KB tumor xenografts; 30 min p.i., i.v.): 54.8 ± 6.1 % ID/g
- % ID/g in Liver (KB tumor xenografts; 30 min p.i., i.v.): 13.7 ± 2.9 % ID/g
- % ID/g in Lungs (KB tumor xenografts; 30 min p.i., i.v.): 2.0 ± 0.3 % ID/g
- % ID/g in Muscle (KB tumor xenografts; 30 min p.i., i.v.): 1.7 ± 0.4 % ID/g
- % ID/g in Salivary glands (KB tumor xenografts; 30 min p.i., i.v.): 9.0 ± 1.3 % ID/g
- % ID/g in Spleen (KB tumor xenografts; 30 min p.i., i.v.): 1.3 ± 0.2 % ID/g
- % ID/g in Stomach (KB tumor xenografts; 30 min p.i., i.v.): 2.8 ± 0.5 % ID/g
- % ID/g in Tumor (KB tumor xenografts; 30 min p.i., i.v.): 11.7 ± 0.9 % ID/g
- Ratio Tumor/Blood (KB tumor xenografts; 30 min p.i., i.v.): 11.1 ± 4.1
- Ratio Tumor/Kidneys (KB tumor xenografts; 30 min p.i., i.v.): 0.2 ± 0.1
- Ratio Tumor/Liver (KB tumor xenografts; 30 min p.i., i.v.): 0.9 ± 0.2
- % ID/g in Blood (KB tumor xenografts; [1]): 0.8 ± 0.3 % ID/g
- % ID/g in Bone (KB tumor xenografts; [1]): 0.6 ± 0.3 % ID/g
- % ID/g in Feces (KB tumor xenografts; [1]): 6.0 ± 1.1 % ID/g
- % ID/g in Gallbladder (KB tumor xenografts; [1]): 15.8 ± 9.3 % ID/g
- % ID/g in Heart (KB tumor xenografts; [1]): 0.4 ± 0.2 % ID/g
- % ID/g in Intestine (KB tumor xenografts; [1]): 1.3 ± 0.6 % ID/g
- % ID/g in Kidneys (KB tumor xenografts; [1]): 5.9 ± 4.5 % ID/g
- % ID/g in Liver (KB tumor xenografts; [1]): 10.9 ± 3.4 % ID/g
- % ID/g in Lungs (KB tumor xenografts; [1]): 0.7 ± 0.3 % ID/g
- % ID/g in Muscle (KB tumor xenografts; [1]): 0.3 ± 0.1 % ID/g
- % ID/g in Salivary glands (KB tumor xenografts; [1]): 0.6 ± 0.2 % ID/g
- % ID/g in Spleen (KB tumor xenografts; [1]): 0.4 ± 0.2 % ID/g
- % ID/g in Stomach (KB tumor xenografts; [1]): 0.6 ± 0.3 % ID/g
- % ID/g in Tumor (KB tumor xenografts; [1]): 1.7 ± 0.4 % ID/g
- Ratio Tumor/Blood (KB tumor xenografts; [1]): 2.2 ± 0.3
- Ratio Tumor/Kidneys (KB tumor xenografts; [1]): 0.4 ± 0.2
- Ratio Tumor/Liver (KB tumor xenografts; [1]): 0.2 ± 0.1
- % ID/g in Blood (KB tumor xenografts; 60 min p.i., i.v.): 0.6 ± 0.1 % ID/g
- % ID/g in Bone (KB tumor xenografts; 60 min p.i., i.v.): 1.6 ± 0.3 % ID/g
- % ID/g in Feces (KB tumor xenografts; 60 min p.i., i.v.): 3.0 ± 2.0 % ID/g
- % ID/g in Gallbladder (KB tumor xenografts; 60 min p.i., i.v.): 8.4 ± 1.8 % ID/g
- % ID/g in Heart (KB tumor xenografts; 60 min p.i., i.v.): 1.9 ± 0.3 % ID/g
- % ID/g in Intestine (KB tumor xenografts; 60 min p.i., i.v.): 1.9 ± 0.2 % ID/g
- % ID/g in Kidneys (KB tumor xenografts; 60 min p.i., i.v.): 53.6 ± 3.2 % ID/g
- % ID/g in Liver (KB tumor xenografts; 60 min p.i., i.v.): 10.6 ± 0.9 % ID/g
- % ID/g in Lungs (KB tumor xenografts; 60 min p.i., i.v.): 1.5 ± 0.2 % ID/g
- % ID/g in Muscle (KB tumor xenografts; 60 min p.i., i.v.): 1.2 ± 0.2 % ID/g
- % ID/g in Salivary glands (KB tumor xenografts; 60 min p.i., i.v.): 15.0 ± 6.1 % ID/g
- % ID/g in Spleen (KB tumor xenografts; 60 min p.i., i.v.): 1.9 ± 0.1 % ID/g
- % ID/g in Stomach (KB tumor xenografts; 60 min p.i., i.v.): 2.8 ± 0.9 % ID/g
- % ID/g in Tumor (KB tumor xenografts; 60 min p.i., i.v.): 11.9 ± 1.7 % ID/g
- Ratio Tumor/Blood (KB tumor xenografts; 60 min p.i., i.v.): 21.6 ± 2.3
- Ratio Tumor/Kidneys (KB tumor xenografts; 60 min p.i., i.v.): 0.2 ± 0.1
- Ratio Tumor/Liver (KB tumor xenografts; 60 min p.i., i.v.): 1.1 ± 0.2
- % ID/g in Blood (KB tumor xenografts; 90 min p.i., i.v.): 0.6 ± 0.1 % ID/g
- % ID/g in Bone (KB tumor xenografts; 90 min p.i., i.v.): 1.6 ± 0.3 % ID/g
- % ID/g in Feces (KB tumor xenografts; 90 min p.i., i.v.): 1.8 ± 0.3 % ID/g
- % ID/g in Gallbladder (KB tumor xenografts; 90 min p.i., i.v.): 9.3 ± 0.6 % ID/g
- % ID/g in Heart (KB tumor xenografts; 90 min p.i., i.v.): 1.8 ± 0.1 % ID/g
- % ID/g in Intestine (KB tumor xenografts; 90 min p.i., i.v.): 2.3 ± 0.4 % ID/g
- % ID/g in Kidneys (KB tumor xenografts; 90 min p.i., i.v.): 57.3 ± 8.4 % ID/g
- % ID/g in Liver (KB tumor xenografts; 90 min p.i., i.v.): 10.3 ± 2.4 % ID/g
- % ID/g in Lungs (KB tumor xenografts; 90 min p.i., i.v.): 1.6 ± 0.3 % ID/g
- % ID/g in Muscle (KB tumor xenografts; 90 min p.i., i.v.): 1.5 ± 0.4 % ID/g
- % ID/g in Salivary glands (KB tumor xenografts; 90 min p.i., i.v.): 14.1 ± 0.9 % ID/g
- % ID/g in Spleen (KB tumor xenografts; 90 min p.i., i.v.): 2.2 ± 0.2 % ID/g
- % ID/g in Stomach (KB tumor xenografts; 90 min p.i., i.v.): 2.7 ± 0.1 % ID/g
- % ID/g in Tumor (KB tumor xenografts; 90 min p.i., i.v.): 12.6 ± 1.8 % ID/g
- Ratio Tumor/Blood (KB tumor xenografts; 90 min p.i., i.v.): 23.8 ± 4.1
- Ratio Tumor/Kidneys (KB tumor xenografts; 90 min p.i., i.v.): 0.2 ± 0.1
- Ratio Tumor/Liver (KB tumor xenografts; 90 min p.i., i.v.): 1.3 ± 0.4
Compound: Nc1nc2ncc(CNc3ccc(C(=O)N[C@@H](CCC(=O)O)C(=O)O)c([18F])n3)nc2c(=O)[nH]1 [3′-aza-2′-[^18F]fluorofolic acid]
- Total cell uptake (KB cells): about 78.17%
- Internalized fraction (KB cells; stripping buffer pH 3): 18.56%
